Reference: the supplement of paper PMC10307832

Tests used:
Test in all cases: relative viability (nuclei count vs DMSO), 5 days (fraction); higher = more cells survive
Masitinib + Lapatinib = compound: Cc1ccc(NC(=O)c2ccc(CN3CCN(C)CC3)cc2)cc1Nc1nc(-c2cccnc2)cs1 [Masitinib] + CS(=O)(=O)CCNCc1ccc(-c2ccc3ncnc(Nc4ccc(OCc5cccc(F)c5)c(Cl)c4)c3c2)o1 [Lapatinib] (partner 2 µM)
How it was run: (§1)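 Five library-drug doses in √10 steps were combined with a fixed anchor-drug dose, or a single drug was given alone, by pin tool to lung cancer cell lines in 1536-well plates the day after seeding. Nuclei were stained and counted after 5 days. Relative viability is the nuclei count in treated wells over that in vehicle wells, taken as the median of duplicate plates.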

Masitinib + Decitabine = compound: Cc1ccc(NC(=O)c2ccc(CN3CCN(C)CC3)cc2)cc1Nc1nc(-c2cccnc2)cs1 [Masitinib] + Nc1ncn([C@H]2C[C@H](O)[C@@H](CO)O2)c(=O)n1 [Decitabine] (partner 2 µM)
How it was run: as §1

[1] = compound: CC1=CC(=CC=C1)NC2=NC(=CS2)C3=CC=NC=C3 + Nc1nc2[nH]cc(CCc3ccc(C(=O)N[C@@H](CCC(=O)O)C(=O)O)cc3)c2c(=O)[nH]1 [Pemetrexed] (partner 0.2 µM)
How it was run: as §1

[2] = compound: CC1=CC(=CC=C1)NC2=NC(=CS2)C3=CC=NC=C3 + Cc1nc(NC(=O)N2CCC[C@H]2C(N)=O)sc1-c1ccnc(C(C)(C)C(F)(F)F)c1 [Alpelisib] (partner 2 µM)
How it was run: as §1

UMC-11
relative viability (Masitinib + Lapatinib; first compound 0.01 µM): 0.82
relative viability (Masitinib + Lapatinib; first compound 0.03162 µM): 0.914
relative viability (Masitinib + Lapatinib; first compound 0.1 µM): 0.979
relative viability (Masitinib + Lapatinib; first compound 0.3162 µM): 1.06
relative viability (Masitinib + Lapatinib; first compound 1 µM): 1.05
relative viability (Masitinib + Decitabine; first compound 0.01 µM): 0.565
relative viability (Masitinib + Decitabine; first compound 0.03162 µM): 0.641
relative viability (Masitinib + Decitabine; first compound 0.1 µM): 0.692
relative viability (Masitinib + Decitabine; first compound 0.3162 µM): 0.608
relative viability (Masitinib + Decitabine; first compound 1 µM): 0.596
relative viability ([1]; first compound 0.08 µM): 0.662
relative viability ([1]; first compound 0.253 µM): 0.802
relative viability ([1]; first compound 0.8 µM): 0.775
relative viability ([1]; first compound 2.53 µM): 0.834
relative viability ([1]; first compound 8 µM): 0.825
relative viability ([2]; first compound 0.08 µM): 1.02
relative viability ([2]; first compound 0.253 µM): 0.91
relative viability ([2]; first compound 0.8 µM): 0.993
relative viability ([2]; first compound 2.53 µM): 0.993
relative viability ([2]; first compound 8 µM): 1.06
